{"source": "patent US20240335470A1", "about": "“CAR T CELLS FOR TREATING CD19+, CD20+ OR CD22+ TUMORS OR B-CELL DERIVED AUTO-IMMUNE DISEASES” (OSPEDALE PEDIATRICO BAMBINO GESU', priority 2020, published 2024)", "key": {"iC9.CAR.CD19 RAJI cells": {"system": "iC9.CAR.CD19 RAJI cells", "assay": "In vitro activation of iC9 by AP1903, RAJI (qPCR)", "assay_type": "cell-based, human", "conditions": "20 nM AP1903", "experimental": "(§1) To induce the in vitro activation of iC9, cells were treated once with 20 nM of AP1903 (Medchemexpress, Cat. HY-16046). The percentage of CAR+ cells after the AP1903 treatment was evaluated by FACS at the indicated time points. […] Control cohort was infused with sterile PBS as vehicle solution. Tumor was monitored by weekly IVIS imaging analysis.\n(§2) The average of vector copy number (VCN) per cell was determined by real-time PCR, using a TaqMan probe designed on the retroviral construct using the Primer Express® software (Applied Biosystems) and reported in Table 2 (iC9 Probe and primers iC9).\n(§3) For VCN, each sample was analyzed in triplicate and the average of threshold cycles was used to quantify DNA copies in relation to the mean values of negative control samples. Relative gene expression was calculated using the house-keeping gene ACT1N1 (Hs_02249516 ACT1N1, ThermoFisher Scientific) qPCR was performed employing QuantStudio 12K Flex Real-Time PCR System (ThermoFisher Scientific). For IG/TR PCR-MRD of the DPs, each MRD value was calculated from the corresponding standard curve, and the results were normalized for values of the housekeeping Albumin gene. […]"}, "[1]": {"system": "iC9.CAR.CD19 NALM-6 cells", "assay": "In vitro activation of iC9 by AP1903, NALM-6 (qPCR)", "assay_type": "cell-based, human", "conditions": "20 nM AP1903", "experimental": "as §1, §2, §3"}, "iC9.CAR.CD19 DAUDI cells": {"system": "iC9.CAR.CD19 DAUDI cells", "assay": "In vitro activation of iC9 by AP1903, DAUDI (FACS, qPCR)", "assay_type": "cell-based, human", "conditions": "20 nM AP1903", "experimental": "as §1\n(§4) Flow cytometry analysis was performed to determine cell surface antigens expression; monoclonal antibodies for CD45, CD3, CD19, CD22, CD10, CD34 (all from Becton Dickinson, USA) were combined with different fluorescence according to needs. iC9.CAR.CD19 expression was detected using a mAb directed to hCD34 epitope (anti-CD34 QBend-10 PE from R&D System, USA), or CD19 CAR Detection Reagent (Biotin; Miltenyi, Germany). Flow-cytometry analysis was performed using a BD LSRFortessa X-20 cytometer (BD Biosciences, USA) and analyzed by FACSDiva software (BD Biosciences, USA). FACS-sorting on CAR-transduced tumor cell lines was performed on a FACSAria (BD Biosciences, USA).\nas §2, §3"}, "[2]": {"system": "iC9.CAR.CD19LH-DAUDI cells", "assay": "NSG xenograft, iC9.CAR.CD19LH-DAUDI, iC9 activation by AP1903", "assay_type": "in vivo, NSG mice", "experimental": "Schematic representation of the experimental design, with iC9.CAR.CD19LH positive FF-Luciferase positive DAUDI cells infused at day-3. At Day 0, mice were evaluated for leukemia engraftment and treated with 100 μg/mouse of AP1903 from day 0 to day 28. (B) Bioluminescence images of each control untreated mouse and each AP1903 treated mouse. Mice were monitored for more than 30 days after AP1903 withdrawal (C) Bioluminescence values over time for each treated mouse in the two cohorts, un-treated (black lines) or AP1903 treated (dotted line) mice. (D) Kaplan-Meier survival curve analysis of leukaemia-bearing mice untreated (black line) or AP1903 treated (blue line). ****p-value=<0.00001. The only mouse (#20) showing a persisting positive signal at IVIS analysis after AP1903 administration was sacrificed at day 35 together with a negative control (#11) and a positive control (mouse not exposed to AP1903 administration, #6), to characterize the leukemia cells.\nas §1"}, "iC9-T cells": {"system": "iC9-T cells", "conditions": "patients with GVHD after haploidentical iC9-T cells infusion; cited from earlier work"}, "[3]": {"system": "DAUDI, RAJI and NALM-6 iC9.CAR+ cells", "assay": "In vitro activation of iC9 by AP1903, all cellular models (FACS, VCN)", "assay_type": "cell-based, human", "experimental": "as §1, §4, §2, §3"}}, "data": [{"molecule": "CC[C@H](C(=O)N1CCCC[C@H]1C(=O)O[C@H](CCc1ccc(OC)c(OC)c1)c1cccc(OCC(=O)NCCNC(=O)COc2cccc([C@@H](CCc3ccc(OC)c(OC)c3)OC(=O)[C@@H]3CCCCN3C(=O)[C@@H](CC)c3cc(OC)c(OC)c(OC)c3)c2)c1)c1cc(OC)c(OC)c(OC)c1", "note": "[AP1903]", "values": [{"measurement": "transgene (TG) positivity in remaining cells after AP1903 exposure (qPCR)", "setting": "iC9.CAR.CD19 RAJI cells", "value": 18.6, "unit": "%"}, {"measurement": "transgene (TG) positivity in remaining cells after AP1903 exposure (qPCR)", "setting": "[1]", "value": 0.6, "unit": "%"}, {"measurement": "re-expansion of iC9.CAR+ leukemic cells on prolonged culture", "setting": "iC9.CAR.CD19 DAUDI cells; FIG. 8E", "value": "not associated to re-expansion"}, {"measurement": "MFI of CAR expression in AP1903 treated cells", "setting": "iC9.CAR.CD19 DAUDI cells; threshold value, FIG. 10E", "value": "142±22"}, {"measurement": "transgene (TG) positivity in remaining cells after AP1903 exposure (qPCR)", "setting": "iC9.CAR.CD19 DAUDI cells; DAUDI cells", "value": 22.8, "unit": "%"}, {"measurement": "complete CAR+ leukemia eradication, number of mice", "setting": "[2]; AP1903 100 μg/mouse i.p. day 1 to day 28", "value": "9 out of 10"}, {"measurement": "survival of treated mice", "setting": "[2]; AP1903 100 μg/mouse i.p., even after drug suspension, to day 63", "value": 100, "unit": "%"}, {"measurement": "leukemia recurrence", "setting": "[2]; until day 63 (endpoint of the experiment)", "value": "no mice showing leukemia recurrence"}, {"measurement": "residual iC9-T cells after AP1903 administration", "setting": "iC9-T cells", "value": 1, "unit": "%"}, {"measurement": "percentage of CAR+ leukemic cells", "setting": "[3]; 20 nM AP1903, 6 hours", "value": "significant reduction in the percentage of CAR+ leukemic cells"}, {"measurement": "CD19 antigen detection on cells remaining after AP1903", "setting": "[3]; 20 nM AP1903, FIG. 8E, 10B, 10D", "value": "completed re-established detection of CD19 antigen"}, {"measurement": "average of VCN threshold in AP1903 treated B cells", "setting": "[3]; across all the considered cellular models, 20 nM, FIG. 10F", "value": "0.1±0.1"}]}]}
